Experimental data reported in PMC5401710, “Peptides with 6-Aminohexanoic Acid: Synthesis and Evaluation as Plasmin Inhibitors” (International Journal of Peptide Research and Therapeutics, 2016).
Non-standard residues stand in square brackets, D forms with d. Residues, ends and D or L forms follow the SMILES beside them. Ahx = NCCCCCC(=O)O

The compounds below were run against T1, plasmin (Homo sapiens, UniProt P00747) (assay: Amidolytic activity of plasmin (substrate S-2251)). Settings: amidolytic activity, S-2251, tris buffer pH 7.4.
T1 construct: The amino-terminal heavy chain of PL consists of five kringle domains; The C-terminal light chain of plasmin is a typical serine protease (SP); purchased Chromogenix (Milano, Italy)
Type: biochemical
Method: (§1) Determination of amidolytic activity was performed as previously described by (Okada et al. [1988]). Buffer and 0.1 ml of enzyme solution was added to 0.2 ml of examined compound dissolved in 0.15 M NaCl (1–15) (as control 0.15 M NaCl). The buffer and the enzyme solution included: • tris buffer—0.6 ml (pH 8.8), enzyme: urokinase (50 units/ml), synthetic substrate: S-2444 (0.1 ml, 3 mM); • tris buffer—0.5 ml (pH 8.4), enzyme: thrombin (1 units/ml), synthetic substrate: S-2238 (0.2 ml, 0.75 mM); • tris buffer—0.5 ml (pH 7.4), enzyme: plasmin (0.4 units/ml), synthetic substrate: S-2251 (0.2 ml, 3 mM); • […]—0.5 ml (pH 7.5), enzyme: trypsin (0.4 units/ml), synthetic substrate: Bzl-L-Arg–pNA.HCl (0.2 ml, 8 mM); • tris buffer—0.6 ml (pH 9.0), enzyme: kallikrein (3 units/ml), synthetic substrate: S-2266 (0.1 ml, 75 mM); • tris buffer—0.6 ml (pH 8.4), enzyme: t-PA ([…]), synthetic substrate: S-2288 (0.1 ml, 10 mM).
(§2) IC50 values were determined (IC50, Inhibitor Concentration, the concentration at which enzyme activity is inhibited by 50 %). Our results were compared with the 6-aminohexanoic acid.

T1 sequence (P00747 97-580 limits assumed): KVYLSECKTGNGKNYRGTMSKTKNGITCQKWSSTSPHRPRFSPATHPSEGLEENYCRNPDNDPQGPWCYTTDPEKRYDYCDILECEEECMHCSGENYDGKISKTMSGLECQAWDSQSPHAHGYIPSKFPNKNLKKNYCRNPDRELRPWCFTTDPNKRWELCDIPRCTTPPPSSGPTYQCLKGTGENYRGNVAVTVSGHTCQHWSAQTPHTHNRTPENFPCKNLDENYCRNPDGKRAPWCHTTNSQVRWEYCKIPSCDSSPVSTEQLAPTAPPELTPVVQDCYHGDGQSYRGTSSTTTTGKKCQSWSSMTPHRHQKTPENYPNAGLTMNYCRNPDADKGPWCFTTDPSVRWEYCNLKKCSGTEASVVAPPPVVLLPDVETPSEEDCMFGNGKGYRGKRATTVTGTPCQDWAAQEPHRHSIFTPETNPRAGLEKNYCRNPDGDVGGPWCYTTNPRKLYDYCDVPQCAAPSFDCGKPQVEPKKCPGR
T1 sequence (P00747 581-810 limits assumed): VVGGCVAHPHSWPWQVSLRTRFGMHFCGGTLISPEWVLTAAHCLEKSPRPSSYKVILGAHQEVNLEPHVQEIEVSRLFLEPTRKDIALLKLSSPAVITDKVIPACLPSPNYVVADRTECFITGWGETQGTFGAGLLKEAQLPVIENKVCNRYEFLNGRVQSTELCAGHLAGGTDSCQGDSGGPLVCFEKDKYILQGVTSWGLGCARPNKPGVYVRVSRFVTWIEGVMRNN

| Structure (SMILES) | IC50 [mM] |
| --- | --- |
| NCCCC[C@H](NC(=O)[C@@H](N)Cc1ccccc1)C(=O)NCCCCCC(=O)O [Compound 1, H–Phe–Lys–EACA–OH] (H-Phe-Lys-[Ahx]-OH) | 11.4 ± 0.91 |
| C[C@H](N)C(=O)N[C@@H](Cc1ccccc1)C(=O)NCCCCCC(=O)O [Compound 5, H–Ala–Phe–EACA–OH] (H-Ala-Phe-[Ahx]-OH) | > 20 |

More lines, now with the values ahead:

| IC50 [mM] | Structure (SMILES) |
| --- | --- |
| 3.37 ± 0.27 | C[C@@H](N)C(=O)N[C@@H](Cc1ccccc1)C(=O)N[C@@H](CCCCN)C(=O)NCCCCCC(=O)O [Compound 2, H–D-Ala–Phe–Lys–EACA–OH] (H-[dA]FK[Ahx]-OH) |
| 4.82 ± 0.39 | C[C@H](N)C(=O)N[C@@H](Cc1ccccc1)C(=O)N[C@@H](CCCCN)C(=O)NCCCCCC(=O)O [Compound 3, H–Ala–Phe–Lys–EACA–OH] (H-AFK[Ahx]-OH) |
| 10.9 ± 0.87 | C[C@@H](N)C(=O)N[C@@H](Cc1ccccc1)C(=O)NCCCCCC(=O)O [Compound 4, H–D-Ala–Phe–EACA–OH] (H-[dA]-Phe-[Ahx]-OH) |

These compounds were tested against T2, thrombin (Bos taurus, UniProt P00735) (assay: Amidolytic activity of thrombin (substrate S-2238)). Settings: amidolytic activity, S-2238, tris buffer pH 8.4.
T2 construct: purchased Lubelska Wytwórnia Szczepionek (Lublin, Poland)
Type: biochemical
Method: as §1, §2

| Structure (SMILES) | IC50 [mM] |
| --- | --- |
| NCCCC[C@H](NC(=O)[C@@H](N)Cc1ccccc1)C(=O)NCCCCCC(=O)O [Compound 1, H–Phe–Lys–EACA–OH] (H-Phe-Lys-[Ahx]-OH) | > 20 |
| C[C@H](N)C(=O)N[C@@H](Cc1ccccc1)C(=O)NCCCCCC(=O)O [Compound 5, H–Ala–Phe–EACA–OH] (H-Ala-Phe-[Ahx]-OH) | 4.77 ± 0.38 |

Now from value to compound:

| IC50 [mM] | Structure (SMILES) |
| --- | --- |
| 3.85 ± 0.31 | C[C@@H](N)C(=O)N[C@@H](Cc1ccccc1)C(=O)N[C@@H](CCCCN)C(=O)NCCCCCC(=O)O [Compound 2, H–D-Ala–Phe–Lys–EACA–OH] (H-[dA]FK[Ahx]-OH) |
| 5.04 ± 0.4 | C[C@H](N)C(=O)N[C@@H](Cc1ccccc1)C(=O)N[C@@H](CCCCN)C(=O)NCCCCCC(=O)O [Compound 3, H–Ala–Phe–Lys–EACA–OH] (H-AFK[Ahx]-OH) |
| > 20 | C[C@@H](N)C(=O)N[C@@H](Cc1ccccc1)C(=O)NCCCCCC(=O)O [Compound 4, H–D-Ala–Phe–EACA–OH] (H-[dA]-Phe-[Ahx]-OH) |

What follows are compounds tested against T3, tPA (Homo sapiens, UniProt P00750) (assay: Amidolytic activity of t-PA (substrate S-2288)). Settings: amidolytic activity, S-2288, tris buffer pH 8.4.
T3 construct: purchased Boehringer Ingelheim GmbH (Ingelheim, Germany)
Type: biochemical
Method: as §1, §2

T3 sequence (P00750 36-562): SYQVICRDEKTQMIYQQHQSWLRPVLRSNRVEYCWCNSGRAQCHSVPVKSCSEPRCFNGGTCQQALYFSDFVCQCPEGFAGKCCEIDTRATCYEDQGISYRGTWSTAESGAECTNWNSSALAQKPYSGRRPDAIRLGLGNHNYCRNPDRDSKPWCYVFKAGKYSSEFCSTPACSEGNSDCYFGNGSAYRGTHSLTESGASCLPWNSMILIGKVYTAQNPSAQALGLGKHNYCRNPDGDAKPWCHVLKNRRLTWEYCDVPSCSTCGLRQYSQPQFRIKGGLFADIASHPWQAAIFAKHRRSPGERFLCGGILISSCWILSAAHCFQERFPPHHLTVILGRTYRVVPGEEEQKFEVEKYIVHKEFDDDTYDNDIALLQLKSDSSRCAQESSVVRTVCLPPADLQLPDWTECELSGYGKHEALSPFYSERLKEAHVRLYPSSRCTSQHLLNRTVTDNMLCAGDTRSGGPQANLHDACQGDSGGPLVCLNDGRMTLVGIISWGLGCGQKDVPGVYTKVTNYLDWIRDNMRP

| Structure (SMILES) | IC50 [mM] |
| --- | --- |
| NCCCC[C@H](NC(=O)[C@@H](N)Cc1ccccc1)C(=O)NCCCCCC(=O)O [Compound 1, H–Phe–Lys–EACA–OH] (H-Phe-Lys-[Ahx]-OH) | > 20 |
| C[C@H](N)C(=O)N[C@@H](Cc1ccccc1)C(=O)NCCCCCC(=O)O [Compound 5, H–Ala–Phe–EACA–OH] (H-Ala-Phe-[Ahx]-OH) | > 20 |

Now from value to compound:

| IC50 [mM] | Structure (SMILES) |
| --- | --- |
| 14.4 ± 1.15 | C[C@@H](N)C(=O)N[C@@H](Cc1ccccc1)C(=O)N[C@@H](CCCCN)C(=O)NCCCCCC(=O)O [Compound 2, H–D-Ala–Phe–Lys–EACA–OH] (H-[dA]FK[Ahx]-OH) |
| 17.6 ± 1.41 | C[C@H](N)C(=O)N[C@@H](Cc1ccccc1)C(=O)N[C@@H](CCCCN)C(=O)NCCCCCC(=O)O [Compound 3, H–Ala–Phe–Lys–EACA–OH] (H-AFK[Ahx]-OH) |
| 6.48 ± 0.52 | C[C@@H](N)C(=O)N[C@@H](Cc1ccccc1)C(=O)NCCCCCC(=O)O [Compound 4, H–D-Ala–Phe–EACA–OH] (H-[dA]-Phe-[Ahx]-OH) |

Each compound was assayed against T4, uPA (Homo sapiens, UniProt P00749) (assay: Amidolytic activity of urokinase (substrate S-2444)). Settings: amidolytic activity, S-2444, tris buffer pH 8.8.
T4 construct: purchased Sigma (Schnelldorf, Germany)
Type: biochemical
Method: as §1, §2

| Structure (SMILES) | IC50 [mM] |
| --- | --- |
| NCCCC[C@H](NC(=O)[C@@H](N)Cc1ccccc1)C(=O)NCCCCCC(=O)O [Compound 1, H–Phe–Lys–EACA–OH] (H-Phe-Lys-[Ahx]-OH) | > 20 |
| C[C@H](N)C(=O)N[C@@H](Cc1ccccc1)C(=O)NCCCCCC(=O)O [Compound 5, H–Ala–Phe–EACA–OH] (H-Ala-Phe-[Ahx]-OH) | 3.38 ± 0.27 |

Further lines, results first:

| IC50 [mM] | Structure (SMILES) |
| --- | --- |
| > 20 | C[C@@H](N)C(=O)N[C@@H](Cc1ccccc1)C(=O)N[C@@H](CCCCN)C(=O)NCCCCCC(=O)O [Compound 2, H–D-Ala–Phe–Lys–EACA–OH] (H-[dA]FK[Ahx]-OH) |
| > 20 | C[C@H](N)C(=O)N[C@@H](Cc1ccccc1)C(=O)N[C@@H](CCCCN)C(=O)NCCCCCC(=O)O [Compound 3, H–Ala–Phe–Lys–EACA–OH] (H-AFK[Ahx]-OH) |
| 3.17 ± 0.25 | C[C@@H](N)C(=O)N[C@@H](Cc1ccccc1)C(=O)NCCCCCC(=O)O [Compound 4, H–D-Ala–Phe–EACA–OH] (H-[dA]-Phe-[Ahx]-OH) |
